Where two headings read alike, the source gives them in different places.
Experiment: Tacrolimus concentration in infra orbital nerves, muscle and PEUU wraps (Example 3)
Format: in vivo, Lewis rats
Details: Lewis, rat, daily intraperitoneal injections 1 mg/kg for 14 days
Protocol: Animals and Surgeries. All animals received care in compliance with the Institutional Animal Care and Use Committee and protocol approval from the University of Pittsburgh and followed guidelines from the Guide for the Care and Use of Laboratory Animals published by the U.S. National Institutes of Health. 10 Lewis rats (RT1) per group (treatment group, non-treatment group), aged 8-10 weeks, were anesthetized with 50 mg/kg intraperitoneal pentobarbital sodium and supplemented as necessary with 10 mg/kg injections. Sterile technique were utilized for all surgeries and a heating pad was used to maintain core animal temperature at 37° C.
The surgical procedure is described in depth in Xiao et al., 2016 and is briefly defined here. Proximal to the mystacial pad, an incision was made on the left hemiface distal to where the infraorbital nerve exits from the infraorbital foramen. Tissue was discretely dissected in order to expose the infraorbital branch of the trigeminal nerve and was transected using microscissors. […]
Quantification of Tacrolimus concentration in infra orbital nerves, muscle, and PEUU wraps. […] Drug concentration was measured by L-CMS/MS and the results were expressed as ng/g of tissue or wrap weight.
Quantification of Tacrolimus by LC-Tandem Mass Spectrometry (LC-MS/MS). […]

**Q.** Which concentration at 14 days (infra orbital nerves (IONs), read-out: tacrolimus concentration in IONs) does the source give for `C=CC[C@@H]1/C=C(\C)C[C@H](C)C[C@H](OC)[C@H]2O[C@@](O)(C(=O)C(=O)N3CCCC[C@H]3C(=O)O[C@H](/C(C)=C/[C@@H]3CC[C@@H](O)[C@H](OC)C3)[C@H](C)[C@@H](O)CC1=O)[C@H](C)C[C@@H]2OC` [tacrolimus] here?
**A.** Its concentration at 14 days is roughly 196 ng/g.

**Q.** What about the concentration at 14 days (muscle, read-out: tacrolimus concentration in muscle) of the same compound?
**A.** The concentration at 14 days was roughly 172 ng/g.

Source: patent US11529318B2, “Devices and methods for local delivery of tacrolimus” (UNIVERSITY OF PITTSBURGH—OF THE COMMONWEALTH SYSTEM OF …, priority 2017, dated 2022)
